The values below come from US20140286904A1, “ANITMICROBIAL PEPTIDE PRODUCED BY INTESTINAL LACTOBACILLUS SALIVARIUS” (AGRICULTURE AND FOOD DEVELOPMENT AUTHORITY (TEAGASC), priority 2011, published 2014).

≈ marks a conversion by molar mass, not a printed value. Positions of bridges follow the written chain, without caps; N, C: chain ends. Residues, ends and D or L forms follow the SMILES beside them. No end group written: not given here.

One assay relates to S. aureus DPC5246. The conditions noted are these: BHI broth, 37° C., 24 h, OD590.
The next assay relates to E. coli strains. The conditions noted are these: broth-based MIC50 assay.
Assay [1] relates to L. monocytogenes NCTC 11994. Conditions: BHI broth, 37° C., 24 h, OD590.
The subject of assay [2] is L. delbrueckii subsp. bulgaricus. Kind of assay: antimicrobial activity of purified peptide (well diffusion, FIG. 1). The format is cell-based, Lactobacillus delbrueckii subsp. bulgaricus. The procedure: (§1) The antimicrobial peptide was purified from a 0.5 L overnight culture of L. salivarius DPC6502 grown in MRS-IM-G media. The cells were removed by centrifugation at 8,000×g for 15 min, and the supernatant applied to a column containing 10 ml SP sepharose Fast flow cation-exchange resin (GE Healthcare, UK) previously equilibrated with 50 mM sodium acetate buffer, pH 4.5. The column was washed with 50 mM sodium acetate buffer, pH 4.5 containing 0.3 M NaCl, the bioactive peptide was subsequently eluted from the column using 50 mM sodium acetate buffer, pH 4.5 containing 1.0 M NaCl. The eluate was applied to a 2.0 g (12 ml volume) C18 Bond Elute column (Phenomenex, Cheshire, UK) pre-equilibrated with methanol and water. […] The column was pre-equilibrated with 10% acetonitrile containing 0.1% (vol/vol) TFA, followed by separation and elution of the bioactive peptide by gradient RP-HPLC using 0.1% (vol/vol) TFA and acetonitrile concentrations that ranged from 10% to 30% (vol/vol), from 5 to 45 min at a flow rate of 1.0 ml min^−1 Absorbance was monitored at a wavelength of 214 nm. Antimicrobial peptide activity was monitored throughout the purification procedure by well diffusion assay using the sensitive indicator strain L. delbrueckii subsp. bulgaricus LMG6901. […]

A further assay deals with Staphylococcus aureus. Kind of assay: antimicrobial activity of purified peptide (FIG. 1). The format is cell-based.
The subject of another assay is Listeria. Described as above. The format is cell-based. How it is done: as §1
The test system of a further assay is L. salivarius UCC118. Kind of assay: inhibition of strains closely related to the producer. The format is cell-based, Lactobacillus salivarius.
Assay [3] has as its system bovine mastitis isolate S. aureus DPC5245. Conditions: cited from earlier work.

For `CSCC[C@H](NC(=O)CNC(=O)[C@@H](NC(=O)[C@@H]1CCCN1C(=O)[C@H](CCSC)NC(=O)CNC(=O)[C@H](CC(N)=O)NC(=O)[C@H](CC(N)=O)NC(=O)[C@H](Cc1ccc(O)cc1)NC(=O)[C@@H](NC(=O)[C@H](CCCNC(=N)N)NC(=O)[C@H](CS)NC(=O)[C@H](CCCNC(=N)N)NC(=O)[C@H](Cc1c[nH]cn1)NC(=O)[C@H](CCCCN)NC(=O)[C@H](CCCCN)NC(=O)[C@H](CCCNC(=N)N)NC(=O)[C@@H](N)CCCCN)C(C)C)[C@@H](C)O)C(=O)N[C@@H](Cc1ccc(O)cc1)C(=O)N[C@@H](CCCNC(=N)N)C(=O)N[C@@H](Cc1c[nH]c2ccccc12)C(=O)N[C@@H](CS)C(=O)O` [synthetic Bactofensin LS1] (H-KRKKHRCRVYNNGMPTGMYRWC-OH; N-terminus assumed), the “MIC50 (concentration sufficient to inhibit growth by 50%)” value (with S. aureus DPC5246; in [1]) was 5 µM (≈ 13.9 µg/mL) in each case. Further, the “concentration that did not inhibit (MIC50 assay)” value in the assay on E. coli strains and with E. sakazakii strains was above 50 µM each time.

With “Bactofensin LS1: 22 aa cationic class II antimicrobial peptide of SEQ ID NO: 2 purified from L. salivarius DPC6502 (KRKKHRCRVYNNGMPTGMYRWC; disulfide 7-22; listed as Lactobacillus salivarius)”, the antimicrobial activity result (in assay [2]; with Staphylococcus aureus; with Listeria) was “active” each time. Further, the “inhibition of closely related strains” value in the assay with L. salivarius UCC118 is listed as “inhibits”.

Turning to lacticin 3147, the MIC50 in assay [3] is 7 to 8 µM.

As usually defined, the MIC50 is an inhibitory concentration at the 50% level, which refers to growth in some studies and to a panel of isolates in others.
